10 compounds from article PMC7002685, “Inhibition of vascular calcification by inositol phosphates derivatized with ethylene glycol oligomers” (Nature Communications, 2020) can be followed below.

“And” between values parts separate entries of the source, which are not always exact repeats. Equal entries are not always repeated.

The subject of this assay is transformation of CPP1 to CPP2 in pooled human serum. The assay can be described thus: In vitro serum calcification propensity (T50) screening assay. Also noted: key to T50: T50 in minutes (time to 50% CPP phase transition). As to conditions: for T50: one value per experiment; for activity/unit mass: mean c350 x mw (Na salt); for concentration upon which a T50 of 350 min is reached (c350), mean: mean of n experiments; for concentration upon which a T50 of 350 min is reached (c350), single experiment: one value per experiment (lab journal reference E05-E40); for Concentration at T50 = 350 min mean ± s.d. (n) (c350): pooled human serum, 10 mM calcium, 6 mM phosphate, 37 °C. The format is biochemical. On the procedure: The compounds were ranked for calcification inhibition activity using a nanoparticle-based test, developed for risk stratification, which measures the propensity for calcification in patient serum. […] The time, after which 50% of CPP phase transition occurred (T50), was assessed by time-resolved spectrophotometry at 550 nm (Supplementary Fig. 1a).
The screening assay was performed as described previously. In brief, pooled human serum (H4522, Sigma-Aldrich) stored at −20 °C was thawed at 37 °C, centrifuged (10,000 × g, and 4 °C, 30 min) (5427R, Eppendorf, Switzerland), and sterile filtered (0.22 μm filter, Millipore, Merck KGaA) to remove potential cryoprecipitates (cleared human serum). The calcium solution was 40 mM CaCl2 (102382, Merck KGaA) in HBS, pH 7.4 (RT) (100 mM HEPES (H3375, Sigma-Aldrich) and 140 mM NaCl (1734712, Fisher Scientific, Hampton, NH, USA)). […] All salt solutions and buffers were double sterile filtered (0.22 µm) and pre-warmed to 37 °C prior to use. […] The plate was sealed with an adhesive film and the absorption at 550 nm was measured every 3 min with 1 min in-between shaking for a total of 300 cycles at 37 °C using the infinite M200 microplate reader (Tecan, Männedorf, Switzerland). An A550 vs. time graph was generated and T50 (min) (time at half-maximum transition from CPP1 to CPP2) values were derived by sigmoidal curve fit using Prism 8 (nonlinear regression in the log(agonist) vs. response–variable slope (four parameter mode) using the robust fit fitting method, GraphPad Software, San Diego, CA, USA). Activities between compounds were compared by generating a T50 (min) vs. concentration (µM) graph, calculating nonlinear regression and deriving the concentration required to delay T50 to 350 min (c350) using a standard equation for the dose–response curve, Eq. (1), whereby x = [compound], y = time (min), bottom = baseline response, top = maximum response, T50 = [drug] that leads to half-maximum response, and the hill slope is a factor that describes the steepness of the curve.1 y= bottom+top - bottom/1+T50/x^hillslope.

`OP(O)(=S)O[C@H]1[C@H](OP(O)(O)=S)[C@@H](OP(O)(O)=S)[C@H](OP(O)(O)=S)[C@@H](OP(O)(O)=S)[C@H]1OP(O)(O)=S` [IT6, myo-Inositol hexathiophosphate]: the activity/unit mass is 12.79 mg/L; the “concentration upon which a T50 of 350 min is reached (c350), mean” value (“concentration upon which a T50 … mean” below) was found to be 14.4 µM; the “concentration upon which a T50 of 350 min is reached (c350), single experiment” value was 14.7 µM and 14.2 µM and 14.3 µM; the “Concentration at T50 = 350 min mean ± s.d. (n) (c350)” value (from here on “Concentration … (n) (c350)”) is given as 14.4 ± 0.3 (3) µM. Also, the T50 (concentration 1 μM) is 209.1 and 228.433 and 226.433. The T50 (concentration 3 μM) was 226.567 and 251.033 and 247.133. Further, the T50 (concentration 10 μM) was 291.533 and 299.233 and 300.133. Further, where the note is “concentration 30 μM”, the T50 is 577.433 and 598.2 and 571.6.

In the case of `O=C([O-])CC(O)(CC(=O)[O-])C(=O)[O-].O=C([O-])CC(O)(CC(=O)[O-])C(=O)[O-].[Mg+2].[Mg+2].[Mg+2]` [Mg citrat], the activity/unit mass was 21.44 mg/L and the “concentration upon which a T50 … mean” value is greater than 100 µM.

As to `COCCOCCOCCOCCOCCOCCOCCOCCOCCOCCOCCO[C@@H]1[C@@H](OP(=O)(O)O)[C@H](OP(=O)(O)O)[C@@H](OP(=O)(O)O)[C@@H](OP(=O)(O)O)[C@H]1OP(=O)(O)O` (racemic) [OEG11-IP5, (±)-6-O-(methoxy-undecaethyleneglycol)-myo-inositol-1,2,3,4,5-pentakis(phosphate)], the activity/unit mass came to 6.84 mg/L; the “concentration upon which a T50 … mean” value is 5.3 µM; the “concentration upon which a T50 of 350 min is reached (c350), single experiment” value is 4.6 µM and 5.2 µM and 6.0 µM; the “Concentration … (n) (c350)” value is 5.3 ± 0.7 (3) µM and 6.8 ± 0.9 (3) mg/L. The T50 (concentration 0.3 μM) was 222.7 and 220.167 and 220.4. Also, for the setting “concentration 1 μM”, the T50 is 258.35 and 236.633 and 236.5. Under “concentration 3 μM”, the T50 is 294.167 and 279.867 and 265.867. Besides, the T50 (concentration 10 μM) is 559.8 and 530.3 and 501.9.

For the compound `COCCOCCOCCOCCOCCOCCOCCOCCOCCOCCOCCOCCO[C@@H]1[C@@H](OP(=O)(O)O)[C@H](OP(=O)(O)O)[C@@H](OP(=O)(O)O)[C@@H](OP(=O)(O)O)[C@H]1OP(=O)(O)O` (racemic) [OEG12-IP5, (±)-6-O-(methoxy-dodecaethyleneglycol)-myo-inositol-1,2,3,4,5-pentakis(phosphate)], the activity/unit mass was determined as 6.58 mg/L; the “concentration upon which a T50 … mean” value is 4.9 µM; the “concentration upon which a T50 of 350 min is reached (c350), single experiment” value was 6.0 µM and 4.6 µM and 4.9 µM and 4.4 µM; the “Concentration … (n) (c350)” value is 4.9 ± 0.6 (5) µM and 6.6 ± 0.9 (5) mg/L. Moreover, the T50 (concentration 0.246 μM) was 217.233 and 225.267. The T50 (concentration 0.82 μM) is 258.4 and 206.7 and 222.1 and 217.5 and 256.667. Also, the T50 (concentration 1.6 μM) is 275.15 and 220.7. For the setting “concentration 2.46 μM”, the T50 was 260.5 and 282.167. In addition, the T50 (concentration 4.1 μM) was 332.45 and 282.35 and 325.75 and 315.4 and 340. Further, the T50 (concentration 8.2 μM) is 493.7 and 442.3 and 481.45 and 498.1 and 499.967.

In the case of `CC(O)(P(=O)(O)O)P(=O)(O)O` [Etidronate, etidronate], the activity/unit mass worked out at 2.61 mg/L; the “concentration upon which a T50 … mean” value stood at 10.5 µM; the “concentration upon which a T50 of 350 min is reached (c350), single experiment” value is 9.9 µM and 11.5 µM and 11.3 µM and 9.1 µM; the “Concentration … (n) (c350)” value is 10.5 ± 1.1 (4) µM and 2.6 ± 0.3 (4) mg/L. Where the note is “concentration 1 μM”, the T50 is 222.567 and 215.333 and 215.167. For the same compound, the T50 (concentration 3 μM) was 248.167 and 245.7 and 237.9. In addition, where the note is “concentration 5 μM”, the T50 was 290 and 263.6 and 286.233. Moreover, for the setting “concentration 10 μM”, the T50 is 321.233 and 361.6. In addition, under “concentration 15 μM”, the T50 is 433.033 and 458.567. Also, the T50 (concentration 30 μM) is 729.533.

On to `COCCOCCOCCOCCOCCOCCOCCO[C@H]1[C@H](OP(=O)(O)O)[C@H](OCCOCCOCCOCCOCCOCCOCCOC)[C@H](OP(=O)(O)O)[C@@H](OCCOCCOCCOCCOCCOCCOCCOC)[C@@H]1OP(=O)(O)O` [(OEG7)3-IP3, 2,4,6-Tri-O-(methoxy-heptaethyleneglycol)-myo-inositol-1,3,5-tris(phosphate)], for which the activity/unit mass came to 14.33 mg/L; the “concentration upon which a T50 … mean” value came to 9.4 µM; the “concentration upon which a T50 of 350 min is reached (c350), single experiment” value was 8.7 µM and 9.8 µM; the “Concentration … (n) (c350)” value is 9.4 ± 0.6 (3) µM and 14.3 ± 1.0 (3) mg/L. Moreover, the T50 (concentration 1 μM) is 258.7 and 237.667 and 205.767. Also, the T50 (concentration 3 μM) was 289.967 and 270.1 and 251.367. Moreover, under “concentration 5 μM”, the T50 is 303.667 and 291.2 and 260.633. Further, where the note is “concentration 10 μM”, the T50 was 364.467 and 352.533 and 355.7.

Take `COCCOCCO[C@H]1[C@H](OP(=O)(O)O)[C@H](OCCOCCOC)[C@H](OP(=O)(O)O)[C@@H](OCCOCCOC)[C@@H]1OP(=O)(O)O` [(OEG2)3-IP3, 2,4,6-Tri-O-(methoxy-diethyleneglycol)-myo-inositol-1,3,5-tris(phosphate)]: the activity/unit mass was determined as 5.43 mg/L; the “concentration upon which a T50 … mean” value is 7.1 µM; the “concentration upon which a T50 of 350 min is reached (c350), single experiment” value is 6.1 µM and 7.7 µM and 7.4 µM; the “Concentration … (n) (c350)” value was 7.1 ± 0.9 (3) µM and 5.4 ± 0.7 (3) mg/L. The T50 (concentration 1 μM) is 250.8 and 223.6 and 227.933. Under “concentration 3 μM”, the T50 was 288.867 and 266.233 and 265.7. Where the note is “concentration 5 μM”, the T50 is 325.1 and 295.733 and 294.5. Besides, the T50 (concentration 10 μM) is 440.6 and 395.433 and 411.533.

As for `O=P(O)(O)OP(=O)(O)O` [PPi, sodium pyrophosphate], the “concentration upon which a T50 … mean” value is 27.4 µM; the “concentration upon which a T50 of 350 min is reached (c350), single experiment” value was 26.6 µM and 25 µM and 30.5 µM; the “Concentration … (n) (c350)” value is 27.4 ± 2.8 (3) µM and 7.3 ± 0.8 (3) mg/L. The T50 (concentration 1 μM) came to 217.433. In addition, the T50 (concentration 3 μM) was 221.633 and 215.733 and 209.467. Further, the T50 (concentration 10 μM) is 255.8 and 265.133 and 242.367. Also, under “concentration 15 μM”, the T50 is 287.067 and 306.267 and 274.667. Further, the T50 (concentration 30 μM) was 364.3 and 363.867 and 345.167. Also, the T50 (concentration 50 μM) is 483 and 451.167.

Regarding `O=P(O)(O)O[C@@H]1[C@H](OP(=O)(O)O)[C@H](OP(=O)(O)O)[C@@H](O)[C@H](OP(=O)(O)O)[C@H]1OP(=O)(O)O` [IP5, myo-Inositol-1,2,3,5,6-pentakisphosphate], the “concentration upon which a T50 … mean” value came to 13.2 µM; the “concentration upon which a T50 of 350 min is reached (c350), single experiment” value was 14.6 µM and 12.1 µM and 12.9 µM; the “Concentration … (n) (c350)” value is 13.2 ± 1.3 (3) µM and 10.5 ± 1.0 (3) mg/L. Moreover, for the setting “concentration 1 μM”, the T50 was 220.367 and 229.167 and 217.95. Moreover, the T50 (concentration 3 μM) was 240.433 and 226.567. Besides, for the setting “concentration 10 μM”, the T50 was 286.067 and 304.933 and 322.1. Further, for the setting “concentration 15 μM”, the T50 is 373.933. In addition, the T50 (concentration 30 μM) is 702.867 and 723.533 and 709.1.

As to `O=P(O)(O)O[C@@H]1[C@H](O)[C@H](O)[C@@H](OP(=O)(O)O)[C@H](OP(=O)(O)O)[C@H]1O` [IP3, myo-Inositol-1,4,5-triphosphate], the “concentration upon which a T50 … mean” value is 18.6 µM; the “concentration upon which a T50 of 350 min is reached (c350), single experiment” value was 15.5 µM and 18.6 µM and 21.6 µM; the “Concentration … (n) (c350)” value is 18.6 ± 3.1 (3) µM and 10.2 ± 1.7 (3) mg/L. For the setting “concentration 1 μM”, the T50 was 226 and 227.733 and 222.3. For the same compound, the T50 (concentration 3 μM) was 236 and 220.433 and 234.133. Also, the T50 (concentration 10 μM) was 306.433 and 280.567 and 269.467. For the same compound, the T50 (concentration 30 μM) is 515.9 and 500.567 and 450.3. For the setting “concentration 50 μM”, the T50 was 814.5 and 889.4 and 828.767.
